Experiments:
Assay in all cases: Dox fluorescence quenching
[1] = system: Apt-Td (aptamer-tetrahedron complex) (DNA, other) AGGAAGAGAGAAGGAAGGGAATTTTTACATTCCTAAGTCTGAAACATTACAGCTTGCTACACGAGAAGAGCCGCCATAGTA/TATCACCAGGCAGTTGACAGTGTAGCAAGCTGTAATAGATGCGAGGGTCCAATAC/TCAACTGCCTGGTGATAAAACGACACTACGTGGGAATCTACTATGGCGGCTCTTC/TTCAGACTTAGGAATGTGCTTCCCACGTAGTGTCGTTTGTATTGGACCCTCGCAT/TTCCCTTCCTTCTCTCTTCCTCTCTCGCAGTTGATCCTTTGGATACCCTG; conditions: not stated for assay; assembled in 50 mM MgCl2; 3 nM Dox; complete quenching at DNA:Dox molar ratio 0.04; assembled in 20 mM Tris-HCl, pH 8.0
[2] = system: MUC1 aptamer (Apt) (DNA, aptamer) GCAGTTGATCCTTTGGATACCCTGG; conditions: not stated; 3 nM Dox; complete quenching at DNA:Dox molar ratio 1; buffer not stated
[3] = system: DNA tetrahedron (Td) (DNA, other) ACATTCCTAAGTCTGAAACATTACAGCTTGCTACACGAGAAGAGCCGCCATAGTA/TATCACCAGGCAGTTGACAGTGTAGCAAGCTGTAATAGATGCGAGGGTCCAATAC/TCAACTGCCTGGTGATAAAACGACACTACGTGGGAATCTACTATGGCGGCTCTTC/TTCAGACTTAGGAATGTGCTTCCCACGTAGTGTCGTTTGTATTGGACCCTCGCAT; conditions: not stated for assay; assembled in 50 mM MgCl2; 3 nM Dox; complete quenching at DNA:Dox molar ratio 0.05; Td assembled in 20 mM Tris-HCl, pH 8.0

Measured: binding

COc1cccc2c1C(=O)c1c(O)c3c(c(O)c1C2=O)C[C@@](O)(C(=O)CO)C[C@@H]3O[C@H]1C[C@H](N)[C@H](O)[C@H](C)O1
yes: [1] | [2] | [3]
